Target: Cholinesterases; ACHE & BCHE (Homo sapiens) (UniProt P06276+P22303)
Test: Selectivity ratio of IC50 for human BChE over IC50 for human AChE by Ellman method

Sequence of Cholinesterases; ACHE & BCHE (Homo sapiens) (P06276 whole entry, looked up): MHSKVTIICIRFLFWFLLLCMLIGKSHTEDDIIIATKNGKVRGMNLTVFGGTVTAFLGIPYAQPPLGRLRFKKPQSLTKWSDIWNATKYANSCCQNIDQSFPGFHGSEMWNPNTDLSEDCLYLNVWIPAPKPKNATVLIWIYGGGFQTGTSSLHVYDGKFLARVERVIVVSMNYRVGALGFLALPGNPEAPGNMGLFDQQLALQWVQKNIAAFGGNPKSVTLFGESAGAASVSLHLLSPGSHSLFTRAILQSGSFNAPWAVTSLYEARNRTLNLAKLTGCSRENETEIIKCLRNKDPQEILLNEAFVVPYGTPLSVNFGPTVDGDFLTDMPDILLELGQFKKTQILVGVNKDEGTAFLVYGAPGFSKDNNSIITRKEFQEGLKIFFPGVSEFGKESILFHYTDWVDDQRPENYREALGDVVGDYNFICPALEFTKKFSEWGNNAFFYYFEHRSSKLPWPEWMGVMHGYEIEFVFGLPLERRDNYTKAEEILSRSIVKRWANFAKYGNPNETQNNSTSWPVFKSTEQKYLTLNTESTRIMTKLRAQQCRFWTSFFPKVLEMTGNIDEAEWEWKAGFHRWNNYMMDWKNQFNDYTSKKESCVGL
Sequence of Cholinesterases; ACHE & BCHE (Homo sapiens) (P22303 whole entry, looked up): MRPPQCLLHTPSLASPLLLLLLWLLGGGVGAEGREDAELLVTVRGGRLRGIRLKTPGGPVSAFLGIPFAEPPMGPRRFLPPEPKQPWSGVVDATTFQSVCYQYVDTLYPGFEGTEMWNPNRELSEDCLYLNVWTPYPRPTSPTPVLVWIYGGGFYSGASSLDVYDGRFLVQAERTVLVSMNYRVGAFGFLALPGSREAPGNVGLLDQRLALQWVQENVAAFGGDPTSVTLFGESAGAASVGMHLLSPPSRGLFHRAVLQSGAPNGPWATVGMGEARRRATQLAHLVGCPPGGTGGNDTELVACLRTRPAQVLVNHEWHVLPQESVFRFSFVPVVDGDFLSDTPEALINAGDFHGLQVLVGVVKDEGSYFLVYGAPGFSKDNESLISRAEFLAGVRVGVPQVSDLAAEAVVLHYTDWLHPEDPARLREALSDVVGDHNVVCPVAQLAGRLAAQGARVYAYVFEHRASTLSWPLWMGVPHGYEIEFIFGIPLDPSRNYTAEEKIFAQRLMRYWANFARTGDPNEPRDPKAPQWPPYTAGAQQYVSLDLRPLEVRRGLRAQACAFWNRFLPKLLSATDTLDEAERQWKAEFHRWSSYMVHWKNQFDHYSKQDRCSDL

## O=P(O)(NN1CCCCC1)Oc1ccccc1
  Ratio IC50: 4
